Laboratory results reported in patent US20230233576A1, “ECLITASERTIB FOR USE IN TREATING CONDITIONS INVOLVING SYSTEMIC HYPERINFLAMMATORY RESPONSE” (priority 2020, published 2023).

System: adult participants hospitalized for severe COVID-19
Test: Phase 1b severe COVID-19 study: clinical laboratory abnormalities (PCSA)
Format: in vivo, human
Settings: TEAE period
Protocol: Standard clinical laboratory parameters (hematology, blood chemistry) were measured per protocol.
For laboratory parameters (hematology, clinical chemistry, and urinalysis), vital signs, and ECG, incidences of potentially clinically significant abnormality (PCSA) values, actual values and change from baseline were summarized by treatment group.
For all laboratory, vital signs and ECG parameters, raw data and change from baseline were summarized in descriptive statistics by treatment group and scheduled time of measurement, with the exception of AST, ALT and alkaline phosphatase: instead of summarizing data in descriptive statistics, participants' profiles were presented through graphics by treatment group and with a color code to identify sites. The reason was that blood samples were processed by local laboratories with different normal ranges. For the rest of clinical laboratory these parameters it is reasonable to pool data as they are standard procedure and no significant differences in normal ranges were expected.

[1] = abnormal baseline (LLN/ULN or PCSA), 600 mg (N = 47), safety population
[2] = all baseline values counted in one unique group (as normal), 600 mg (N = 47), safety population
[3] = missing baseline, 600 mg (N = 47), safety population
[4] = normal baseline, 600 mg (N = 47), safety population

For `CN1C(=O)[C@@H](NC(=O)c2nnc(Cc3ccccc3)[nH]2)COc2cccnc21` [RIPK1 Inhibitor, (S)-5-benzyl-N-(5-methyl-4-oxo-2,3,4,5-tetrahydropyrido[3,2-b][1,4]oxazepin-3-yl)-4H-1,2,4-triazole-3-carboxamide], the “participants with ALT>3 ULN” value (600 mg) was 9 participants, the “participants with ALT>5 ULN” value (600 mg) was 1 participants and the “participants with AST>5 ULN” value (600 mg) was 1 participants. The “participants with PCSAs of AST>3 ULN” value (600 mg) was 2 participants, the “participants with alkaline phosphatase>1.5 ULN” value (600 mg) was 2 participants and the “participants with total bilirubin>1.5 ULN” value (600 mg) was “One”. For the same molecule, the “PCSA Alanine Aminotransferase (ALT) >3 ULN” value [1] was 7/20, the “PCSA Alanine Aminotransferase (ALT) >5 ULN” value [1] was 0/20 and the “PCSA Alanine Aminotransferase (ALT) >10 ULN” value [1] was 0/20. For the same molecule, the “PCSA Alanine Aminotransferase (ALT) >20 ULN” value [1] was 0/20, the “PCSA Albumin ≤25 g/L” value [1] was 0/28 and the “PCSA Alkaline Phosphatase >1.5 ULN” value [1] was 0/0. The “PCSA Aspartate Aminotransferase (AST) >3 ULN” value [1] was 1/24, the “PCSA Aspartate Aminotransferase (AST) >5 ULN” value [1] was 0/24 and the “PCSA Aspartate Aminotransferase (AST) >10 ULN” value [1] was 0/24. The “PCSA Basophils >0.1 * 10^9/L” value [1] was 0/0, the “PCSA C-Reactive Protein >2 ULN or >10 mg/L (if ULN not provided)” value [1] was 42/46 and the “PCSA Conjugated bilirubin >35% Bilirubin and Bilirubin >1.5 ULN” value [1] was 0/0. For the same molecule, the “PCSA Creatinine Clearance (CG) <15 mL/min (end stage renal disease)” value [1] was 0/18, the “PCSA Creatinine Clearance (CG) ≥15-<30 mL/min (severe decrease in GFR)” value [1] was 0/18 and the “PCSA Creatinine Clearance (CG) ≥30-<60 mL/min (moderate decrease in GFR)” value [1] was 4/18. For the same molecule, the “PCSA Creatinine Clearance (CG) ≥60-<90 mL/min (mild decrease in GFR)” value [1] was 11/18, the “PCSA Creatinine ≥150 μmol/L (Adults)” value [1] was 1/8 and the “PCSA Eosinophils >0.5 * 10^9/L or >ULN (if ULN ≥ 0.5 * 10^9/L)” value [1] was 0/9. The “PCSA Erythrocyte Count (RBC) ≥6 * 10^12/L” value [1] was 1/17, the “PCSA Glucose ≤3.9 mmol/L and <LLN” value [1] was 1/33 and the “PCSA Glucose ≥11.1 mmol/L (unfasted); ≥7 mmol/L (fasted)” value (shortened to “PCSA Glucose ≥11.1 mmol/L (unfasted)”) [1] was 18/33. For the same molecule, the “PCSA Hematocrit ≤0.37 v/v (Male); ≤0.32 v/v (Female)” value [1] was 11/17, the “PCSA Hematocrit ≥0.55 v/v (Male); ≥0.5 v/v (Female)” value [1] was 0/17 and the “PCSA Hemoglobin ≤115 g/L (Male); ≤95 g/L (Female)” value [1] was 4/18. For the same molecule, the “PCSA Hemoglobin ≥185 g/L (Male); ≥165 g/L (Female)” value [1] was 0/18, the “PCSA Lymphocytes >4 * 10^9/L” value [1] was 2/11 and the “PCSA Monocytes >0.7 * 10^9/L” value [1] was 6/10. For the same molecule, the “PCSA Neutrophils <1.5 * 10^9/L (Non-Black); <1 * 10^9/L (Black)” value [1] was 0/8, the “PCSA Platelet Count <100 * 10^9/L” value [1] was 1/11 and the “PCSA Platelet Count ≥700 * 10^9/L” value [1] was 1/11. The “PCSA Potassium <3 mmol/L” value [1] was 0/7, the “PCSA Potassium ≥5.5 mmol/L” value [1] was 1/7 and the “PCSA Sodium ≤129 mmol/L” value [1] was 0/8. The “PCSA Sodium ≥160 mmol/L” value [1] was 0/8, the “PCSA Total Bilirubin >1.5 ULN” value [1] was 0/2 and the “PCSA Total Bilirubin >2 ULN” value [1] was 0/2. The “PCSA White blood cell count <3 * 10^9/L (Non-Black); <2 * 10^9/L (Black)” value [1] was 0/10, the “PCSA White blood cell count ≥16 * 10^9/L” value [1] was 1/10 and the “PCSA Creatinine ≥30% change from baseline” value [2] was 3/47. For the same molecule, the “PCSA Creatinine ≥100% change from baseline” value [2] was 0/47, the “PCSA Hemoglobin Decrease from baseline ≥20 g/L” value [2] was 4/47 and the “PCSA Alanine Aminotransferase (ALT) >3 ULN” value [3] was 0/0. For the same molecule, the “PCSA Alanine Aminotransferase (ALT) >5 ULN” value [3] was 0/0, the “PCSA Alanine Aminotransferase (ALT) >10 ULN” value [3] was 0/0 and the “PCSA Alanine Aminotransferase (ALT) >20 ULN” value [3] was 0/0. For the same molecule, the “PCSA Albumin ≤25 g/L” value [3] was 0/0, the “PCSA Alkaline Phosphatase >1.5 ULN” value [3] was 0/0 and the “PCSA Aspartate Aminotransferase (AST) >3 ULN” value [3] was 0/0. The “PCSA Aspartate Aminotransferase (AST) >5 ULN” value [3] was 0/0, the “PCSA Aspartate Aminotransferase (AST) >10 ULN” value [3] was 0/0 and the “PCSA C-Reactive Protein >2 ULN or >10 mg/L (if ULN not provided)” value [3] was 0/0. The “PCSA Conjugated bilirubin >35% Bilirubin and Bilirubin >1.5 ULN” value [3] was 0/1, the “PCSA Glucose ≤3.9 mmol/L and <LLN” value [3] was 0/3 and the “PCSA Glucose ≥11.1 mmol/L (unfasted)” value [3] was 3/3. For the same molecule, the “PCSA Total Bilirubin >1.5 ULN” value [3] was 0/0, the “PCSA Total Bilirubin >2 ULN” value [3] was 0/0 and the “PCSA Alanine Aminotransferase (ALT) >3 ULN” value [4] was 2/27. For the same molecule, the “PCSA Alanine Aminotransferase (ALT) >5 ULN” value [4] was 1/27, the “PCSA Alanine Aminotransferase (ALT) >10 ULN” value [4] was 0/27 and the “PCSA Alanine Aminotransferase (ALT) >20 ULN” value [4] was 0/27. For the same molecule, the “PCSA Albumin ≤25 g/L” value [4] was 0/18, the “PCSA Alkaline Phosphatase >1.5 ULN” value [4] was 2/46 and the “PCSA Aspartate Aminotransferase (AST) >3 ULN” value [4] was 1/23. The “PCSA Aspartate Aminotransferase (AST) >5 ULN” value [4] was 1/23, the “PCSA Aspartate Aminotransferase (AST) >10 ULN” value [4] was 0/23 and the “PCSA Basophils >0.1 * 10^9/L” value [4] was 3/29. The “PCSA C-Reactive Protein >2 ULN or >10 mg/L (if ULN not provided)” value [4] was 0/1, the “PCSA Conjugated bilirubin >35% Bilirubin and Bilirubin >1.5 ULN” value [4] was 0/46 and the “PCSA Creatinine Clearance (CG) <15 mL/min (end stage renal disease)” value [4] was 0/29. For the same molecule, the “PCSA Creatinine Clearance (CG) ≥15-<30 mL/min (severe decrease in GFR)” value [4] was 0/29, the “PCSA Creatinine Clearance (CG) ≥30-<60 mL/min (moderate decrease in GFR)” value [4] was 0/29 and the “PCSA Creatinine Clearance (CG) ≥60-<90 mL/min (mild decrease in GFR)” value [4] was 5/29. For the same molecule, the “PCSA Creatinine ≥150 μmol/L (Adults)” value [4] was 0/39, the “PCSA Eosinophils >0.5 * 10^9/L or >ULN (if ULN ≥ 0.5 * 10^9/L)” value [4] was 1/20 and the “PCSA Erythrocyte Count (RBC) ≥6 * 10^12/L” value [4] was 0/30. The “PCSA Glucose ≤3.9 mmol/L and <LLN” value [4] was 1/10, the “PCSA Glucose ≥11.1 mmol/L (unfasted)” value [4] was 5/10 and the “PCSA Hematocrit ≤0.37 v/v (Male); ≤0.32 v/v (Female)” value [4] was 4/30. The “PCSA Hematocrit ≥0.55 v/v (Male); ≥0.5 v/v (Female)” value [4] was 0/30, the “PCSA Hemoglobin ≤115 g/L (Male); ≤95 g/L (Female)” value [4] was 1/29 and the “PCSA Hemoglobin ≥185 g/L (Male); ≥165 g/L (Female)” value [4] was 0/29. For the same molecule, the “PCSA Lymphocytes >4 * 10^9/L” value [4] was 3/18, the “PCSA Monocytes >0.7 * 10^9/L” value [4] was 12/19 and the “PCSA Neutrophils <1.5 * 10^9/L (Non-Black); <1 * 10^9/L (Black)” value [4] was 2/21. The “PCSA Platelet Count <100 * 10^9/L” value [4] was 0/36, the “PCSA Platelet Count ≥700 * 10^9/L” value [4] was 0/36 and the “PCSA Potassium <3 mmol/L” value [4] was 0/40. The “PCSA Potassium ≥5.5 mmol/L” value [4] was 4/40, the “PCSA Sodium ≤129 mmol/L” value [4] was 1/39 and the “PCSA Sodium ≥160 mmol/L” value [4] was 0/39. For the same molecule, the “PCSA Total Bilirubin >1.5 ULN” value [4] was 1/45, the “PCSA Total Bilirubin >2 ULN” value [4] was 0/45 and the “PCSA White blood cell count <3 * 10^9/L (Non-Black); <2 * 10^9/L (Black)” value [4] was 1/37. The “PCSA White blood cell count ≥16 * 10^9/L” value [4] was 2/37.
